The nature of the data set: gradient 5% acetonitrile 3 min, to 50% in 2 min, to 85% in 15 min, held 3 min, 100 µL/min. The conditions noted are these: column: Zorbax Extend-C18 2.1 x 50 mm; eluents: water / acetonitrile, 0.1% formic acid. The gist of the method: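 Retention times of pure standards were taken from adduct peaks that were selected by computer and manually inspected. Over 3 months, mixtures of ~100 molecules were run by HPLC–quadrupole time-of-flight mass spectrometry in positive and negative ionization mode. The Zorbax Extend-C18 column (2.1 × 50 mm, 1.8 μm) ran at 100 μL/min in water and acetonitrile, each containing 0.1% formic acid, with 40 μL dead volume and 900 μL dwell volume.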
Take `CCCc1nc(NCc2ccc3c(c2)OCO3)ncc1C(=O)O`: the RP-LC retention time is 791 s. The result for `Cc1nccn1Cc1nc(-c2ccc(F)c(Br)c2)no1` reads 668 s; that for `CSc1ccc(-c2nc3cnccn3c2Nc2ccc(C)cc2)cc1`, 1000 s. The figure for `O=C(Cc1ccccc1Cl)N1CCN(c2nc(CN3CCOCC3)cs2)CC1` is 640 s; for `O=C(CSc1nnc2c3cc(-c4ccc(F)cc4)nn3ccn12)Nc1ccccc1F` it is 881 s. The figure for `COc1cc(/C=C2\CCOC2=O)cc(OC)c1OC` is 802 s. `O=C(Cc1ccsc1)N1CCC2(CC1)N=C(c1cccc(Br)c1)NO2` gave an RP-LC retention time of 889 s. The result for `CCOC(=O)c1c(C)[nH]c(C(=O)N2CCCC(C(=O)NCc3ccccc3F)C2)c1C` (stereo not given) reads 790 s; that for `CC(C)Cc1ccc(S(=O)(=O)N2CCN(c3ccccn3)CC2)cc1`, 840 s; that for `COC(=O)C1=CN(c2cccc(C)c2)c2cc(F)ccc2S1(=O)=O`, 911 s. `COc1ccc(OC)c2sc(NC(=O)c3cc(C)on3)nc12` yielded an RP-LC retention time of 748 s. The result for `Cc1nc(C)c(C(=O)N2CCCCCCNC(=O)[C@@H]3CCCC[C@@H]32)s1` reads 727 s. As to `CC(=O)Nc1ccc(-c2noc(C3CCN(C(=O)Cc4c[nH]c5ccccc45)CC3)n2)cc1`, the RP-LC retention time came out at 761 s.

In turn, `COC(=O)c1cnc2nc(C)ccc2c1Nc1ccc(F)cc1F` returned an RP-LC retention time of 674 s.

`O=C1Nc2ccccc2SC1C(=O)N1CCC(C(=O)N2CCn3c2nc2ccccc23)CC1` (stereo not given) gave an RP-LC retention time of 688 s.

The compound `Cc1ccc(S(=O)(=O)N(C)CC2CCOC2)cc1Cl` (stereo not given) displayed an RP-LC retention time of 895 s. The result for `O=c1[nH]c2ccc(NCc3cccc(Cl)c3Cl)cc2[nH]1` reads 728 s. The figure for `Cc1cc(C(=O)NC(C)C)n[nH]1` is 592 s; for `O=C(NCC1CCCO1)c1cc(-c2cccs2)nc2ccccc12` (stereo not given) it is 841 s. Take `O=C(NCCN1CCOCC1)c1ccc(Nc2c(-c3ccccc3)nc3cnccn23)cc1`: the RP-LC retention time is 581 s.

Take `CC(=O)c1ccc(N2C(=O)Cn3cccc3C2C(=O)NC2CCC(C)CC2)cc1` (stereo not given): the RP-LC retention time was determined as 869 s. For the compound `CC(C)NC(=O)c1ccc(OCC2CCN(C(=O)C3(c4ccccc4)CC3)CC2)cc1`, the RP-LC retention time came to 897 s.

`COc1ccc(CNC(=O)C2CCN(c3ccc(SCc4ccccc4)nn3)CC2)c(OC)c1`: the RP-LC retention time stood at 767 s. The figure for `COCCCNC(=O)N1CCCN(C2=NS(=O)(=O)C(c3ccc(C)cc3)=C2C)CC1` is 730 s; for `Cn1nc(CNC(=O)c2cccc(NC(=O)c3ccco3)c2)c2ccccc21` it is 736 s.

`O=C(CSc1ncnc2c1cnn2-c1ccc(Cl)cc1)Nc1ccc(F)cc1F` gave an RP-LC retention time of 750 s. The compound `O=C(NCc1ccco1)c1ccc2c(c1)nc1n2CCCCC1` showed an RP-LC retention time of 596 s. For the compound `Cc1nnc2c(=O)n(CC(=O)N3CCC(Cc4ccccc4)CC3)c3cccnc3n12`, the RP-LC retention time turned out to be 814 s.

Regarding `O=C(c1ccc(C(F)(F)F)s1)N1CCN(c2nnc3ccccn23)CC1`, the RP-LC retention time was determined as 711 s. The figure for `Cc1ccc(NC(=O)C2CCCN2S(=O)(=O)c2cc3c(cc2C)NC(=O)C(C)O3)cc1C` (stereo not given) is 842 s; for `CCOC(=O)c1cccc(NC(=O)C2CCCN(c3nnc(C)c4c(C)n(-c5ccccc5)nc34)C2)c1` (stereo not given) it is 797 s; for `COc1ccc(-c2nc(Cc3noc(-c4ccc(C#N)cc4)n3)c(C)o2)cc1` it is 1070 s. The figure for `O=C(c1ccsc1)N1CCN(c2nnc3ccc(Cl)cn23)CC1` is 615 s; for `CN(C)S(=O)(=O)c1ccc2c(c1)N(CC(=O)NCCC1=CCCCC1)C(=O)C1CCCCN21` (stereo not given) it is 996 s.

Regarding `CCN1CCN(CCCNC(=O)c2ccc3c(c2)N(C)C(=O)C2CCCCN32)CC1` (stereo not given), the RP-LC retention time was found to be 554 s. The figure for `CNC(=O)NCCC1CCN(S(=O)(=O)c2ccc(C)cc2)CC1` is 708 s; for `O=C(CCc1c(-c2ccc(Cl)cc2)nc2ccccn12)NCCC1=CCCCC1` it is 756 s; for `O=[N+]([O-])c1ccc2c(c1)CN(S(=O)(=O)c1cccs1)CC2` it is 878 s. The figure for `O=c1n(Cc2ccc3c(c2)OCO3)nc2c(S(=O)(=O)N3CCc4ccccc4C3)cccn12` is 922 s; for `CC(C)CC(=O)Nc1ccc(N2CCOCC2)cc1C(=O)O` it is 713 s; for `Cc1[nH]c(-c2ccc(Cl)cc2)cc1C(=O)NC1CCCC1` it is 947 s. The result for `CCc1ccc(NC(=O)Cn2nc3n(c2=O)CCCCC3)cc1` reads 709 s; that for `CC(=O)N1c2ccc(S(=O)(=O)N3CCCC3)cc2CC1C(=O)NCc1ccc(N(C)C)cc1` (stereo not given), 620 s; that for `CCOC(=O)c1cc(S(=O)(=O)N2CCCC2C(=O)NCc2cccnc2)cn1C` (stereo not given), 598 s. `O=C(C1CCCC1)N1CCn2c(nnc2-c2ccccc2)C1` had an RP-LC retention time of 689 s.

Consider `CCCCN1CCN(C(=O)c2cn(-c3cc(N4CCC(C)CC4)ncn3)cn2)CC1`, for which the RP-LC retention time stood at 690 s. In the case of `CCOC(=O)C1=C(CN2CCCCC2)NC(=O)NC1c1cccs1` (stereo not given), the RP-LC retention time amounted to 545 s. The result for `O=C(Nc1nccs1)C1CCN(S(=O)(=O)c2cc(C(=O)N3CCOCC3)cs2)CC1` reads 680 s; that for `CCN(C(=O)Nc1ccccc1C(F)(F)F)c1nc(-c2ccc(C)cc2)cs1`, 576 s.

The compound `CCc1cc(=O)n(CC(=O)Nc2ccc(C)c(C)c2)c(N)n1` came in with an RP-LC retention time of 640 s. The figure for `CCOC(=O)Cc1ccc(NC(=O)N2CCCC2c2cccs2)cc1` (stereo not given) is 921 s; for `CCN(CC)C(=O)Cn1c(CO)nc2ccccc21` it is 563 s; for `CCN1CCCC1CNC(=O)CCC(=O)N1CCCn2nc(-c3cn(C)c4ccccc34)cc21` (stereo not given) it is 620 s. The figure for `COc1ccc(CC(=O)N2CCC3(C2)C(=O)Nc2ccc(OC)cc23)c(Cl)c1` (stereo not given) is 768 s; for `Cc1ccc(NC(=O)Cn2cnc3nc(N4CCCC(C(=O)NC(C)C)C4)sc3c2=O)c(F)c1` (stereo not given) it is 701 s; for `CC(C)(C)c1cc(NCc2ccccn2)n2ncc(-c3ccc(Cl)cc3)c2n1` it is 841 s.

The compound `COc1ccc(-c2noc(Cn3ccn4nc(-c5ccc(C)cc5)cc4c3=O)n2)cc1OC` yielded an RP-LC retention time of 986 s. `CC(C)(C)OC(=O)Nc1ccc(-c2cc(C(=O)NCCCCCCC(=O)NO)no2)cc1` displayed an RP-LC retention time of 739 s.

Turning to `CC(NC(=O)Cn1cnc(-c2noc(-c3cccnc3)n2)c1)c1ccccc1` (stereo not given), the RP-LC retention time is 823 s. Compound `CN1CCN(C(=O)c2cc(-c3ccccc3)cn2C)CC1` showed an RP-LC retention time of 619 s.

As for `Cc1ccsc1CCNC(=O)C1CCN(S(=O)(=O)c2ccc3c(c2)CCCC(=O)N3)CC1`, the RP-LC retention time amounted to 760 s. In turn, `COC(=O)c1ccc(N2C=C(C#N)S(=O)(=O)c3c(F)cccc32)cc1` registered an RP-LC retention time of 858 s. The figure for `COc1ccc(C2C(C)C(=O)C(C)C(c3ccc(OC)cc3)N2N=O)cc1` (stereo not given) is 1000 s; for `Cc1nn2c(CNS(=O)(=O)c3ccc(C(C)C)cc3)c(-c3ccccc3)nc2s1` it is 1010 s. The compound `COc1cc(-c2nc3ncccn3c2Nc2ccc(C)c(Cl)c2)ccc1O` yielded an RP-LC retention time of 704 s. The compound `CS(=O)(=O)N1CCC(OC2CCN(C(=O)Nc3ccccc3F)CC2)CC1` returned an RP-LC retention time of 703 s. Consider `O=C(NCC(=O)N1CCN(c2ccccn2)CC1)c1cncc(Br)c1`, for which the RP-LC retention time came to 576 s. The result for `CC(=O)N1CCc2cc(N3CC(C(=O)NCCC(C)C)CC3=O)ccc21` (stereo not given) reads 669 s; that for `O=C(c1cccc(-n2cnnn2)c1)N1CCC(c2nnc(-c3ccco3)s2)CC1`, 651 s. The result for `Cc1cc(C)cc(C(=O)Nc2cc(-c3cccnc3)no2)c1` reads 838 s; that for `COc1ccc(CNC(=O)CN2C(=O)CC(c3cccs3)=Nc3ccccc32)cc1`, 863 s. The result for `Cc1ccnc(NC(=O)C2CCN(S(=O)(=O)c3cc(C(=O)N4CCCCCC4)cs3)CC2)c1` reads 638 s.

On to `Cc1noc(C2CN(C(=O)Nc3cccc(Cl)c3C)CC23CCOCC3)n1` (stereo not given), for which the RP-LC retention time was 792 s. With `Cc1ccc(N2CC(c3nc(-c4ccc5c(c4)ncn5CCC(=O)N4CCCC4)no3)CC2=O)cc1` (stereo not given), the RP-LC retention time turned out to be 676 s.

`CCN(CC)CCNC(=O)C1(O)c2cc(Br)ccc2NC(=O)N1c1cccc(OC)c1` (stereo not given): the RP-LC retention time amounted to 590 s.

Turning to `O=C(NC1CC1)C1CCN(C(=O)c2cc(-c3ccncc3)n[nH]2)CC1`, the RP-LC retention time was found to be 546 s. The result for `CCNC(=O)Cc1nnc(-c2cccc(F)c2)o1` reads 656 s; that for `Cc1cc(C)cc(Nc2nc3ccncc3n(C(C)C)c2=O)c1`, 745 s; that for `CCc1ccccc1N1C(=O)CN(S(C)(=O)=O)CC1(C)C(=O)NCc1ccccc1` (stereo not given), 804 s.

Regarding `COCCCn1c(=O)c2ccccc2n(Cc2nc(-c3ccccc3)no2)c1=O`, the RP-LC retention time amounted to 994 s.

The values above are taken from the METLIN SMRT retention time set (Domingo-Almenara et al. 2019).
